Measurements from patent US8383139B2 (Bayer CropScience AG, priority 2008, dated 2013).
Each block holds one compound with its values, some of them ahead of it.

Columns and labels:
[1] = system: Sphaerotheca fuliginea; assay: Sphaerotheca test (cucumber)/protective; assay type: in vivo; conditions: Podosphaera fuliginea, 168 h, 500 ppm active substance, protective, evaluation 7 days after inoculation, read-out: degree of effectiveness
Procedure: • Solvents: 49 parts by weight of N,N-dimethylformamide • Emulsifier: 1 part by weight of alkylaryl polyglycol ether (polyoxyethylene (16) tristearylphenyl ether) To prepare a suitable active substance composition, 1 part by weight of active substance is mixed with the given amounts of solvents and emulsifier and the concentrate is diluted to the desired concentration using water. For the testing of protective effectiveness, young cucumber plants are sprayed with the active substance composition in the application rate given. One day after the treatment, the plants are inoculated with a suspension of spores of Sphaerotheca fuliginea. Subsequently, the plants are placed in a greenhouse at 70% relative humidity and at a temperature of 23° C. Evaluation is carried out 7 days after the inoculation. In this connection, 0% means a degree of effectiveness corresponding to that of the control, while a degree of effectiveness of 100% means that no infestation is observed.

[2] = system: Alternaria solani; assay: Alternaria test (tomato)/protective; assay type: in vivo; conditions: 72 h, 100 ppm active substance, protective, evaluation 3 days after inoculation, read-out: degree of effectiveness
Procedure: (§1) • Solvents: 24.5 parts by weight of acetone • 24.5 parts by weight of dimethylacetamide • Emulsifier: 1 part by weight of alkylaryl polyglycol ether (polyoxyethylene (16) tristearylphenyl ether)
(§2) To prepare a suitable active substance composition, 1 part by weight of active substance is mixed with the given amounts of solvents and emulsifier and the concentrate is diluted to the desired concentration using water.
For the testing of protective effectiveness, young plants are sprayed with the active substance composition in the application rate given. After the spray coating has been dried on, the plants are inoculated with an aqueous suspension of spores of Alternaria solani. The plants are then placed in an incubation chamber at approximately 20° C. and 100% relative humidity.
Evaluation is carried out 3 days after the inoculation. In this connection, 0% means a degree of effectiveness corresponding to that of the control, while a degree of effectiveness of 100% means that no infestation is observed.

[3] = log P by HPLC on reversed-phase columns (C 18), EEC Directive 79/831 Annex V.A8; assay type: physicochemical; conditions: reversed-phase C18 HPLC column, pH 2.3, [a] HPLC, acid region pH 2.3, 0.1% aqueous phosphoric acid and acetonitrile; read-out: log p
[4] = system: Uromyces appendiculatus; assay: Uromyces test (beans)/protective; assay type: in vivo; conditions: 240 h, 100 ppm active substance, protective, evaluation 10 days after inoculation, read-out: degree of effectiveness
Procedure: as §1, §2
For the testing of protective effectiveness, young plants are sprayed with the active substance composition in the application rate given. After the spray coating has been dried on, the plants are inoculated with an aqueous suspension of the spores of the bean rust pathogen Uromyces appendiculatus and then remain in an incubation chamber at approximately 20° C. and 100% relative humidity for 1 day.
The plants are then placed in a greenhouse at approximately 21° C. and a relative humidity of approximately 90%.
Evaluation is carried out 10 days after the inoculation. In this connection, 0% means a degree of effectiveness corresponding to that of the control, while a degree of effectiveness of 100% means that no infestation is observed.

[5] = system: Puccinia triticina; assay: Puccinia triticina test (wheat)/protective; assay type: in vivo; conditions: 192 h, 500 ppm active substance, protective, evaluation 8 days after inoculation, read-out: degree of effectiveness
Procedure: • Solvent: 50 parts by weight of N,N-dimethylacetamide • Emulsifier: 1 part by weight of alkylaryl polyglycol ether (polyoxyethylene (16) tristearylphenyl ether) To prepare a suitable active substance composition, 1 part by weight of active substance is mixed with the given amounts of solvent and emulsifier and the concentrate is diluted to the desired concentration using water. For the testing of protective effectiveness, young plants are sprayed with the active substance composition in the application rate given. After the spray coating has been dried on, the plants are sprayed with spores with a suspension of spores of Puccinia triticina. The plants remain in an incubation chamber at 20° C. and 100% relative humidity for 48 hours. The plants are placed in a greenhouse at a temperature of approximately 20° C. and a relative humidity of approximately 80%. Evaluation is carried out 8 days after the inoculation. In this connection, 0% means a degree of effectiveness corresponding to that of the control, while a degree of effectiveness of 100% means that no infestation is observed.

[6] = system: Septoria tritici; assay: Septoria tritici test (wheat)/protective; assay type: in vivo; conditions: Zymoseptoria tritici, 504 h, 500 ppm active substance, protective, evaluation 21 days after inoculation, read-out: degree of effectiveness
Procedure: • Solvent: 50 parts by weight of N,N-dimethylacetamide • Emulsifier: 1 part by weight of alkylaryl polyglycol ether (polyoxyethylene (16) tristearylphenyl ether) To prepare a suitable active substance composition, 1 part by weight of active substance is mixed with the given amounts of solvent and emulsifier and the concentrate is diluted to the desired concentration using water. For the testing of protective effectiveness, young plants are sprayed with the active substance composition at the application rate given. After the spray coating has dried on, the plants are sprayed with a suspension of spores of Septoria tritici. The plants remain in an incubation chamber at 20° C. and 100% relative humidity for 48 hours. The plants are afterwards placed under a transparent hood at 15° C. and 100% relative humidity for a further 60 hours. The plants are placed in a greenhouse at a temperature of approximately 15° C. and a relative humidity of 80%. Evaluation is carried out 21 days after the inoculation. In this connection, 0% means a degree of effectiveness corresponding to that of the control, while a degree of effectiveness of 100% means that no infestation is observed.

SMILES: CCC(c1ccccc1)c1nsc(Oc2cc(C)c(N=CN3CCCCC3)cc2C)n1 (stereo not shown) [Example 7, 2,5-dimethyl-4-{[3-(1-phenylpropyl)-1,2,4-thiadiazol-5-yl]oxy}-N-(piperidin-1-ylmethylidene)aniline]
pest or weed control at 500 ppm [1]: ≥ 70%
pest or weed control at 100 ppm [2]: ≥ 70%
chromatographic logP [3]: 2.21
pest or weed control at 100 ppm [4]: ≥ 70%
pest or weed control at 500 ppm [5]: ≥ 70%
pest or weed control at 500 ppm [6]: ≥ 70%

SMILES: Cc1cc(Oc2nc(C(C)c3ccccc3)ns2)c(C)cc1N=CN1CCCCC1 (stereo not shown) [Example 8, 2,5-dimethyl-4-{[3-(1-phenylethyl)-1,2,4-thiadiazol-5-yl]oxy}-N-(piperidin-1-ylmethylidene)aniline]
pest or weed control at 500 ppm [1]: ≥ 70%
pest or weed control at 100 ppm [2]: ≥ 70%
chromatographic logP [3]: 1.95
pest or weed control at 100 ppm [4]: ≥ 70%
pest or weed control at 500 ppm [5]: ≥ 70%
pest or weed control at 500 ppm [6]: ≥ 70%

SMILES: Cc1cc(Oc2nc(C(C)c3ccc(Cl)cc3)ns2)c(Cl)cc1N=CN(C)C(C)C (stereo not shown) [Example 22, N′-[5-chloro-4-({3-[1-(4-chlorophenyl)ethyl]-1,2,4-thiadiazol-5-yl}oxy)-2-methylphenyl]-N-methyl-N-(propan-2-yl)imidoformamide]
pest or weed control at 100 ppm [2]: ≥ 70%
chromatographic logP [3]: 2.52
pest or weed control at 100 ppm [4]: ≥ 70%
pest or weed control at 500 ppm [5]: ≥ 70%

SMILES: Cc1cc(Oc2nc(C(C)(C)c3ccc(Cl)cc3)ns2)c(Cl)cc1N=CN1CCCCC1 [Example 29, 5-chloro-4-({3-[2-(4-chlorophenyl)propan-2-yl]-1,2,4-thiadiazol-5-yl}oxy)-2-methyl-N-(piperidin-1-ylmethylidene)aniline]
pest or weed control at 500 ppm [1]: ≥ 70%
pest or weed control at 100 ppm [2]: ≥ 70%
chromatographic logP [3]: 2.96
pest or weed control at 500 ppm [5]: ≥ 70%
pest or weed control at 500 ppm [6]: ≥ 70%

SMILES: Cc1cc(Oc2nc(C3(c4ccc(Cl)cc4)CC3)ns2)c(C)cc1N=CN1CCCCC1 [Example 38, 4-({3-[1-(4-chlorophenyl)cyclopropyl]-1,2,4-thiadiazol-5-yl}oxy)-2,5-dimethyl-N-(piperidin-1-ylmethylidene)aniline]
pest or weed control at 500 ppm [1]: ≥ 70%
pest or weed control at 100 ppm [2]: ≥ 70%
chromatographic logP [3]: 2.6
pest or weed control at 500 ppm [5]: ≥ 70%
pest or weed control at 500 ppm [6]: ≥ 70%

SMILES: Cc1cc(Oc2nc(C3(c4ccc(Cl)cc4)CC3)ns2)c(C)cc1N=CN(C)C(C)C [Example 39, N′-[4-({3-[1-(4-chlorophenyl)cyclopropyl]-1,2,4-thiadiazol-5-yl}oxy)-2,5-dimethylphenyl]-N-methyl-N-(propan-2-yl)imidoformamide]
pest or weed control at 500 ppm [1]: ≥ 70%
pest or weed control at 100 ppm [2]: ≥ 70%
chromatographic logP [3]: 2.57
pest or weed control at 500 ppm [5]: ≥ 70%
pest or weed control at 500 ppm [6]: ≥ 70%

SMILES: Cc1cc(Oc2nc(C3(c4ccc(Cl)cc4)CC3)ns2)c(Cl)cc1N=CN1CCCCC1 [Example 44, 5-chloro-4-({3-[1-(4-chlorophenyl)cyclopropyl]-1,2,4-thiadiazol-5-yl}oxy)-2-methyl-N-(piperidin-1-ylmethylidene)aniline]
pest or weed control at 500 ppm [1]: ≥ 70%
pest or weed control at 100 ppm [2]: ≥ 70%
chromatographic logP [3]: 2.76
pest or weed control at 500 ppm [5]: ≥ 70%
pest or weed control at 500 ppm [6]: ≥ 70%

Now from value to compound, other results behind:

chromatographic logP [3]: 2.08
SMILES: CCC(c1ccccc1)c1nsc(Oc2cc(C)c(N=CN(C)CC)cc2C)n1 (stereo not shown) [Example 6, N′-(2,5-dimethyl-4-{[3-(1-phenylpropyl)-1,2,4-thiadiazol-5-yl]oxy}phenyl)-N-ethyl-N-methylimidoformamide]
pest or weed control at 500 ppm [1]: ≥ 70%
pest or weed control at 100 ppm [2]: ≥ 70%
pest or weed control at 100 ppm [4]: ≥ 70%
pest or weed control at 500 ppm [5]: ≥ 70%
pest or weed control at 500 ppm [6]: ≥ 70%

chromatographic logP [3]: 2.03
SMILES: Cc1cc(Oc2nc(Cc3ccc(Cl)cc3)ns2)c(C)cc1N=CN(C)C(C)C [Example 9, N′-(4-{[3-(4-chlorobenzyl)-1,2,4-thiadiazol-5-yl]oxy}-2,5-dimethylphenyl)-N-methyl-N-(propan-2-yl)imidoformamide]
pest or weed control at 500 ppm [1]: ≥ 70%
pest or weed control at 100 ppm [2]: ≥ 70%
pest or weed control at 100 ppm [4]: ≥ 70%
pest or weed control at 500 ppm [5]: ≥ 70%
pest or weed control at 500 ppm [6]: ≥ 70%

chromatographic logP [3]: 2.05
SMILES: CCN(C)C=Nc1cc(C)c(Oc2nc(Cc3cccc(C(F)(F)F)c3)ns2)cc1C [Example 10, N′-[2,5-dimethyl-4-({3-[3-(trifluoromethyl)benzyl]-1,2,4-thiadiazol-5-yl}oxy)phenyl]-N-ethyl-N-methylimidoformamide]
pest or weed control at 500 ppm [1]: ≥ 70%
pest or weed control at 100 ppm [2]: ≥ 70%
pest or weed control at 100 ppm [4]: ≥ 70%
pest or weed control at 500 ppm [5]: ≥ 70%
pest or weed control at 500 ppm [6]: ≥ 70%

chromatographic logP [3]: 2.71
SMILES: Cc1cc(Oc2nc(C(C)(C)c3ccc(Cl)cc3)ns2)c(C)cc1N=CN(C)C(C)C [Example 27, N′-[4-({3-[2-(4-chlorophenyl)propan-2-yl]-1,2,4-thiadiazol-5-yl}oxy)-2,5-dimethylphenyl]-N-methyl-N-(propan-2-yl)imidoformamide]
pest or weed control at 500 ppm [1]: ≥ 70%
pest or weed control at 100 ppm [2]: ≥ 70%
pest or weed control at 100 ppm [4]: ≥ 70%

chromatographic logP [3]: 2.15
SMILES: Cc1cc(Oc2nc(Cc3ccccc3C(F)(F)F)ns2)c(C)cc1N=CN1CCCCC1 [Example 43, 2,5-dimethyl-N-(piperidin-1-ylmethylidene)-4-({3-[2-(trifluoromethyl)benzyl]-1,2,4-thiadiazol-5-yl}oxy)aniline]
pest or weed control at 500 ppm [1]: ≥ 70%
pest or weed control at 100 ppm [2]: ≥ 70%
pest or weed control at 100 ppm [4]: ≥ 70%
pest or weed control at 500 ppm [5]: ≥ 70%

chromatographic logP [3]: 1.84
SMILES: Cc1cc(Oc2nc(Cc3ccc4c(c3)OCO4)ns2)c(C)cc1N=CN1CCCCC1 [Example 45, 4-{[3-(1,3-benzodioxol-5-ylmethyl)-1,2,4-thiadiazol-5-yl]oxy}-2,5-dimethyl-N-(piperidin-1-ylmethylidene)aniline]
pest or weed control at 500 ppm [1]: ≥ 70%
pest or weed control at 100 ppm [2]: ≥ 70%
pest or weed control at 500 ppm [5]: ≥ 70%
pest or weed control at 500 ppm [6]: ≥ 70%

chromatographic logP [3]: 1.65
SMILES: CCN(C)C=Nc1cc(C)c(Oc2nc(Cc3ccc4c(c3)OCO4)ns2)cc1C [Example 46, N′-(4-{[3-(1,3-benzodioxol-5-ylmethyl)-1,2,4-thiadiazol-5-yl]oxy}-2,5-dimethylphenyl)-N-ethyl-N-methylimidoformamide]
pest or weed control at 500 ppm [1]: ≥ 70%
pest or weed control at 100 ppm [2]: ≥ 70%
pest or weed control at 500 ppm [5]: ≥ 70%
pest or weed control at 500 ppm [6]: ≥ 70%
